Laboratory results published in patent US20260199482A1, “BILE ACID-METRONIDAZOLE CONJUGATE AND USE THEREOF” (SOUTH CHINA UNIVERSITY OF TECHNOLOGY, priority 2022, published 2026).
In brackets after ≈: the same amount, converted by molar mass.

Assays:
[1] = system: Porphyromonas gingivalis ATCC 33277; assay: MIC determination using broth microdilution method, anaerobic bacteria; type: cell-based; conditions: ATCC33277; Porphyromonas gingivalis ATCC 33277; broth microdilution, anaerobic, 37° C., 48 h; read-out: MIC
Description: S5, Culture of Porphyromonas gingivalis strain: • the strain stored at −80° C. was resuscitated in the anaerobic glove box with a Colombian blood agar plate, and statically cultured at 37° C. in the constant-temperature incubator for 5-7 days.
(§1) The culture process of the strain was operated in the anaerobic glove box. After the operation was completed, the strain was well sealed with an anaerobic bag or an anaerobic box, taken out and then cultured in the constant-temperature incubator.

H. pylori ATCC 26695 [2] = conditions: H. pylori ATCC 26695(S); footnote b; cited from earlier work
H. pylori ATCC 43504 [3] = conditions: H. pylori ATCC 43504(R); footnote a; cited from earlier work
[4] = system: Bacteroides fragilis ATCC 25285; assay: MIC determination using broth microdilution method, anaerobic bacteria; type: cell-based; conditions: ATCC25285; Bacteroides fragilis ATCC 25285; broth microdilution, anaerobic, 37° C., 48 h; read-out: MIC
Description: as §1

[5] = system: Clostridioides difficile infection (spores, 027 Type); assay: Clostridioides difficile infection (CDI) mouse model; type: in vivo, C57BL/6 mice; conditions: for number of surviving mice: 10 animals per group
From the text: • 1) Experimental animals: C57BL/6, 4-6 weeks old, female.
In order to evaluate the efficacy of the compounds of the present application on Clostridioides difficile infection, an animal model of Clostridioides difficile infection was established, as shown in FIG. 1. […] On Day 0, the mice were administrated with 10^5 CFU/mL of spores by gavage; and on Days 1 and 2, the mice were administrated with 10^6 CFU/mL of spores by gavage. Starting from Day 3, the mice were given 7 days of drug treatment, and all mice were euthanized at the end of the experiment, except for the death of mice during the treatment.
Two of the conjugates, SCUT1-2 and SCUT1-6, with the optional in-vitro inhibitory activities were selected. […] The therapeutic effect of the conjugate of the present application in the treatment of Clostridioides difficile infection was evaluated.

H. pylori NCTC 11637 = assay: MIC determination using broth microdilution method, Helicobacter pylori; type: cell-based; conditions: Helicobacter pylori, NCTC11637; H. pylori NCTC 11637(R), metronidazole-resistant strain; read-out: MIC
Description: (§2) • 1) A frozen solution stored at −80° C. was taken out, and thawed at room temperature; 100 μL of bacterial solution was taken with a pipette, coated onto a Columbia blood agar plate (finished-product medium), put invertedly in a […] culture box, placed in a micro-aerobic gas production bag to achieve a micro-aerobic environment, and cultured at 37° C. for 2-3 days. • 2) A sterile inoculation ring was used to pick Helicobacter pylori single colonies (transparent water droplets) grown on the Colombian blood agar medium and inoculated in the above liquid medium; and cultured at 37° C. in a micro-aerobic environment for 3 days. • 3) A required concentration (absorbance) for the experiment was reached after culture, and the bacterial solution was taken for subsequent experiments.
(§3) The drug concentration at which bacteria ceased to grow or grew at the most significant reduction level was referred to as the MIC value.

[6] = system: H. pylori Sydney strain SS1; assay: as above; type: cell-based; conditions: H. pylori Sydney strain SS1, read-out: MIC
Description: as §2, §3

H. pylori ATCC 26695 [7] = assay: as above; type: cell-based; conditions: ATCC26695, H. pylori ATCC 26695(S), metronidazole-susceptible strain, read-out: MIC
Description: as §2, §3

H. pylori ATCC 43504 [8] = assay: as above; type: cell-based; conditions: Helicobacter pylori, ATCC43504; H. pylori ATCC 43504(R), metronidazole-resistant strain; read-out: MIC
Description: as §2, §3

[9] = system: Clostridioides difficile ATCC 43255; assay: MIC determination using broth microdilution method, anaerobic bacteria; type: cell-based; conditions: ATCC43255; Clostridioides difficile ATCC 43255; broth microdilution, anaerobic, 37° C., 48 h
Description: 0.10 g of sterile cycloserine and 3.20 mg of sterile cefoxitin (filtered by a filter membrane and sterilized) were added to every 200 mL, mixed well, and poured into a sterile petri dish for later use.
S3, culture of Clostridioides difficile strain: 1) the strain stored at −80° C. was resuscitated in an anaerobic glove box with a cycloserine-cefoxitin-fructose agar medium plate, and statically cultured at 37° C. in a constant-temperature incubator for 48 h; • 2) single colonies were picked, and statically cultured in the brain heart infusion broth medium overnight at 37° C. in the constant-temperature incubator; and • 3) the bacterial solution that was statically cultured overnight was transferred into the anaerobic glove box with the brain heart infusion broth medium at a ratio of 1:100, and cultured for 3-4 h until the OD600 was between 0.6 and 0.8; and during this process, 5 g/L of yeast extract solution was added to increase a strain concentration.
as §1

[10] = Day 3 (before the administration), 50 mg/kg groups

## Cc1ncc([N+](=O)[O-])n1CCO [Metronidazole]
[1]
  MIC: 2 µg/mL (≈ 11.7 µM)
H. pylori ATCC 26695 [2]
  MIC reported in related literatures: (1-8)^b μg/mL
H. pylori ATCC 43504 [3]
  MIC reported in related literatures: (64-256)^a μg/mL
[4]
  MIC: 0.25 to 2 µg/mL (≈ 1.46 to 11.7 µM)
[5]; [10]
  number of mice with diarrhea: 9 number of mice
  number of surviving mice: 10 number of mice
[5]; Day 4, 50 mg/kg
  number of mice with diarrhea: 8 number of mice
  number of surviving mice: 9 number of mice
[5]; Day 5, 50 mg/kg
  number of mice with diarrhea: 5 number of mice
  number of surviving mice: 8 number of mice
[5]; Day 6, 50 mg/kg
  number of mice with diarrhea: 3 number of mice
  number of surviving mice: 8 number of mice
[5]; Day 7, 50 mg/kg
  number of mice with diarrhea: 3 number of mice
  number of surviving mice: 8 number of mice
[5]; Day 8, 50 mg/kg
  number of mice with diarrhea: 3 number of mice
  number of surviving mice: 8 number of mice
[5]; Day 9, 50 mg/kg
  number of mice with diarrhea: 3 number of mice
  number of surviving mice: 8 number of mice
[5]; after 7 days of drug treatment, 50 mg/kg, Model group 44.44%
  probability of survival: 80%
H. pylori NCTC 11637
  MIC: > 128 µg/mL
[6]
  MIC: 8 µg/mL (≈ 46.7 µM)
H. pylori ATCC 26695 [7]
  MIC: 4 µg/mL (≈ 23.4 µM)
H. pylori ATCC 43504 [8]
  MIC: > 128 µg/mL
[9]
  MIC: 1 to 2 µg/mL (≈ 5.84 to 11.7 µM)
